How the values were obtained:
Test in all cases: relative viability (nuclei count vs DMSO), 5 days (fraction); higher = more cells survive
[1] = compound: Cc1ccc(NC(=O)c2ccc(CN3CCN(C)CC3)cc2)cc1Nc1nc(-c2cccnc2)cs1 [Masitinib] + O=C(c1cc(Cc2n[nH]c(=O)c3ccccc23)ccc1F)N1CCN(C(=O)C2CC2)CC1 [Olaparib] (partner 8 µM)
How it was run: (§1)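 One day after seeding in 1536-well plates, lung cancer cell lines were dosed by pin tool. Dosing was either single-drug or a fixed anchor-drug dose plus five library-drug doses (not always all listed) in √10 steps. After 5 days, nuclei were stained in one fix-and-stain step and counted on 4× images, and relative viability is the nuclei count of treated wells over that of vehicle wells, given as the median of duplicate plates.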

[2] = compound: Cc1ccc(NC(=O)c2ccc(CN3CCN(C)CC3)cc2)cc1Nc1nc(-c2cccnc2)cs1 [Masitinib] + C[C@@H](Oc1cc(-c2cnn(C3CCNCC3)c2)cnc1N)c1c(Cl)ccc(F)c1Cl [Crizotinib] (partner 1 µM)
How it was run: as §1

[3] = compound: CC1=CC(=CC=C1)NC2=NC(=CS2)C3=CC=NC=C3 + C[C@]1(O)C[C@@H](c2nc(-c3ccc4ccc(-c5ccccc5)nc4c3)c3c(N)nccn32)C1 [Linsitinib] (partner 1 µM)
How it was run: as §1

[4] = compound: Cc1ccc(NC(=O)c2ccc(CN3CCN(C)CC3)cc2)cc1Nc1nc(-c2cccnc2)cs1 [Masitinib] + Nc1nc2[nH]cc(CCc3ccc(C(=O)N[C@@H](CCC(=O)O)C(=O)O)cc3)c2c(=O)[nH]1 [Pemetrexed] (partner 0.2 µM)
How it was run: as §1

Row | Cell Line | relative viability ([1]; first compound 0.01 µM) | relative viability ([1]; first compound 0.03162 µM) | relative viability ([1]; first compound 0.1 µM) | relative viability ([1]; first compound 0.3162 µM) | relative viability ([1]; first compound 1 µM) | relative viability ([2]; first compound 0.01 µM) | relative viability ([2]; first compound 0.03162 µM) | relative viability ([2]; first compound 0.1 µM) | relative viability ([2]; first compound 0.3162 µM) | relative viability ([2]; first compound 1 µM) | relative viability ([3]; first compound 0.08 µM) | relative viability ([3]; first compound 0.253 µM) | relative viability ([3]; first compound 0.8 µM) | relative viability ([3]; first compound 2.53 µM) | relative viability ([3]; first compound 8 µM) | relative viability ([4]; first compound 0.01 µM) | relative viability ([4]; first compound 0.03162 µM) | relative viability ([4]; first compound 0.1 µM) | relative viability ([4]; first compound 0.3162 µM) | relative viability ([4]; first compound 1 µM)
1 | NCI-H2228 | 0.756 | 0.589 | 0.622 | 0.548 | 0.661 | 0.417 | 0.481 | 0.717 | 0.415 | 0.669 | 0.569 | 0.629 | 0.408 | 0.586 | 0.705 | 0.342 | 0.372 | 0.347 | 0.347 | 0.363
2 | EMC-BAC-2 | 0.457 | 0.484 | 0.481 | 0.416 | 0.456 | 0.655 | 0.648 | 0.845 | 0.705 | 0.82 | 0.712 | 0.817 | 0.781 | 0.802 | 0.718 | 0.435 | 0.453 | 0.447 | 0.429 | 0.328
3 | NCI-H2009 | 0.733 | 0.546 | 0.818 | 0.702 | 0.635 | 1.03 | 1.09 | 1 | 1.02 | 0.99 | 1.15 | 1.16 | 1.1 | 1.18 | 1.15 | 1 | 1.01 | 1.1 | 1.09 | 1.01
4 | NCI-H596 | 0.593 | 0.657 | 0.634 | 0.581 | 0.633 | 0.964 | 1.1 | 1.06 | 0.931 | 0.981 | 1.03 | 0.995 | 0.764 | 0.991 | 0.806 | 0.553 | 0.536 | 0.501 | 0.463 | 0.472

Reference: the supplement of paper PMC10307832
